pKi: −log10 of the molar value. Where two headings read alike, the source gives them in different places.
Key:
In vivo biodistribution = settings: for OB:Str 30 min: olfactory bulb to striata ratio; for OB:Str 30 min / OB 30 min: 30 min after injection; for OB 30 min: olfactory bulb, i.v.; for OB 30 min / Brain 2 min: rat; for Brain 2 min: i.v. tail vein, 2 min after injection
Description: Adult male Wistar rats (200-300 g) were injected with 1-3 MBq of test compound via the lateral tail vein. At 2, 10, 30 or 60 min (n=3) after injection, rats were euthanised and tissues or fluids were sampled for radioactive measurement on a gamma counter.

Wistar rat heart PBR = target: T1, Wistar rat heart PBR (Rattus norvegicus, UniProt P16257); test: In vitro potency assay, competition binding against [3H]PK-11195, rat heart PBR
T1 construct: from tissue; host or cells: Wistar rat heart
Description: (§1) Affinity for PBR was screened using a method adapted from Le Fur et al (Life Sci. 1983; USA 33: 449-57). Non-radioactive analogues of the PET tracer of the invention and the associated racemate were tested. Each test compound (dissolved in 50 mM Tris-HCl, pH 7.4, 10 mM MgCl2 containing 1% DMSO) competed for binding to either Wistar rat heart PBR or human PBR against 0.3 nM [^3H] PK-11195. The reaction was carried out in 50 mM Tris-HCl, pH 7.4 10 mM MgCl2 for 15 minutes at 25° C.

PBR [1] = target: T2, PBR (Rattus norvegicus, UniProt P16257); test: In vivo blocking assay (biodistribution after pre-administration of PK11195 or non-radioactive analogue); set-up: species or system Wistar rats; settings: 30 min after injection; for Blood (% of vehicle), PK11195 block / Lungs (% of vehicle), PK11195 block / Muscle (% of vehicle), PK11195 block / Olfactory bulb uptake (% of vehicle), PK11195 block / Striata uptake (% of vehicle), PK11195 block: PK11195 3 mg/kg 5 min before tracer; for Blood (% of vehicle), Non-radioactive Analogue block / Lungs (% of vehicle), Non-radioactive Analogue block / Muscle (% of vehicle), Non-radioactive Analogue block / Olfactory bulb uptake (% of vehicle), Non-radioactive Analogue block / Striata uptake (% of vehicle), Non-radioactive Analogue block: non-radioactive analogue 3 mg/kg 5 min before tracer
T2 construct: Various tissues including brain stem and olfactory bulb were removed from the animals; from tissue; host or cells: Wistar rat, in vivo tissues (A7); frozen sections of brain stem and olfactory bulb (A8)
Description: The in vivo biodistributions of the PET tracer of the invention compared with its associated racemate were tested after pre-administration of their respective non-radioactive analogues, or pre-administration of the known PBR-specific ligand, PK11195.
PK11195 or a non-radioactive analogue (both at 3 mg/kg) was administered 5 min before the radiolabelled test compound.

human PBR = human PBR (Homo sapiens, UniProt P30536); test: In vitro potency assay, competition binding against [3H]PK-11195, human PBR
Sequence of human PBR (P30536 whole entry): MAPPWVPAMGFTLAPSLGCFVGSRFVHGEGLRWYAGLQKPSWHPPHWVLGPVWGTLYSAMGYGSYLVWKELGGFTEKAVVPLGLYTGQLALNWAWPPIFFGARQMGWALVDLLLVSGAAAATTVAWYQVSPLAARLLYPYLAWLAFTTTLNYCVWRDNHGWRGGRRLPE
Description: as §1

[2] = In vivo metabolism study (% parent in brain and plasma by HPLC); settings: for Brain (% parent) 10 min pi / Brain (% parent) 30 min pi / Brain (% parent) 60 min pi: rat brain; for Brain (% parent) 10 min pi / Plasma (% parent) 10 min pi: 10 min post injection; for Brain (% parent) 30 min pi / Plasma (% parent) 30 min pi: 30 min post injection; for Brain (% parent) 60 min pi / Plasma (% parent) 60 min pi: 60 min post injection; for Plasma (% parent) 10 min pi / Plasma (% parent) 30 min pi / Plasma (% parent) 60 min pi: rat plasma
Description: The amount of brain or plasma activity that was due to parent test compound was tested up to 1 hour post-administration.
Adult male Wistar rats (150-200 g) were injected with approximately 20 MBq of test compound. Brain and plasma samples were analysed by HPLC at 10, 30 and 60 minutes pi.

PBR [3] = target: T2, PBR; test: Facial nerve axotomy model of inflammation, in vitro autoradiography of tissue sections; type: binding, Wistar rats; settings: for Naïve brain stem % specific binding, Unlabelled ligand / Olfactory bulb % specific binding, Unlabelled ligand / FNA brain stem % specific binding, Unlabelled ligand: blocked with non-radioactive PET tracer at 1 μM; for Naïve brain stem % specific binding, PK11195 / Olfactory bulb % specific binding, PK11195 / FNA brain stem % specific binding, PK11195: blocked with non-radioactive PK11195 at 1 μM; for FNA brain stem % specific binding, Unlabelled ligand / FNA brain stem % specific binding, PK11195: facial nerve axotomy
Description: Binding to a focal site of neuroinflammation was tested by autoradiography.
Male Wistar rats (200-300 g) were either used naïve, or underwent a facial nerve axotomy according to the procedure described by Graeber and Kreutzberg (J Neurocytol 1986; 15: 363-373). Various tissues including brain stem and olfactory bulb were removed from the animals and rapidly frozen in isopentane then stored at −70° C. until use. Tissues were sectioned (12 μm) and thaw-mounted onto Superfrost Plus slides. Slides were stored at −70° C. until use.
The slides were air dried prior to pre-incubation in Tris-HCl buffer (170 mM, pH 7.4) for 5 min at room temperature. 1000-fold excess of non-radioactive PK11195 at 1 μM, or non-radioactive PET tracer of the invention at 1 μM was added prior to incubation with Tris-HCl buffer (170 mM, pH 7.4) containing […] of test compound for 60 minutes. The reaction was then terminated by rinsing the sections two times for 5 mins each in ice-cold buffer (Tris-HCl, 170 mM, pH 7.4) and then the slides were dipped briefly in distilled water to rinse. Next the slides were dried in air and exposed to x-ray film. When exposing to x-ray film, a reference standard was included, for in vitro autoradiography a reference sample (20μ) was taken from the solution and placed on filter paper (taped onto a glass) and exposed together with the sections. The film was exposed for 24 hours and the data were analysed by drawing regions of interest around the specific anatomic structures as well as around the blocked samples, references and background using MCID software using a density gradient scale as a calibration curve adjusted to the reference sample.

[4] = In vitro chiral stability assay in rat liver S9 fraction; type: in vitro ADME; settings: non-radioactive; 37° C., 4 hours; chiral HPLC
Description: (§2) The non-radioactive PET tracer of the invention obtained according to Example 2 was incubated (37° C.) in human plasma or in rat liver S9 fraction up to 4 hours. The enantiomers were extracted from the biological material by precipitation of proteins. The solid precipitate was separated from the liquid phase, which was evaporated to dryness. The dry residue was dissolved in acetonitrile.
(§3) A Dionex Ultimate 3000 HPLC system consisting of two pumps (micro pump LPG-3000 and Ultimate 3000 pump), a UV/visible detector, an auto sampler and two switching valves was applied in this study. One switching valve was connecting the two pumps and the auto sampler. This set-up made it possible to use either of the pumps to inject into the column. The pump used for injection was connected to the SPE column only. After the injection and elution the SPE column was washed using the injection pump. The system was made ready for a new injection while the chiral analysis was ongoing.
(§4) The other switching valve connected the analytical column and the SPE column. […]
(§5) Elution from the SPE column and separation: The elution started using mobile phase mixture of 10% MeCN and 90% 10 mM ammonium acetate. […] The analytical column was washed for 3 min using 70% MeCN/MeOH and then stabilized at 10% MeCN/MeOH to make the separation system ready for the next injection. […]

[5] = In vitro chiral stability assay in human plasma; type: in vitro ADME; settings: non-radioactive; 37° C., 4 hours; chiral HPLC
Description: as §2, §3, §4, §5

[6] = non-radioactive analogues tested, against 0.3 nM [3H]PK-11195, 15 minutes at 25° C., read-out: Rat Heart Ki
[7] = non-radioactive analogues tested, against 0.3 nM [3H]PK-11195, 15 minutes at 25° C., read-out: Human Ki

| Structure (SMILES) | OB:Str 30 min (In vivo biodistribution) | OB 30 min (In vivo biodistribution) | Brain 2 min (In vivo biodistribution) | Blood (% of vehicle), PK11195 block (PBR [1]) | Lungs (% of vehicle), PK11195 block (PBR [1]) | Muscle (% of vehicle), PK11195 block (PBR [1]) | Olfactory bulb uptake (% of vehicle), PK11195 block (PBR [1]) | Striata uptake (% of vehicle), PK11195 block (PBR [1]) | Blood (% of vehicle), Non-radioactive Analogue block (PBR [1]) | Lungs (% of vehicle), Non-radioactive Analogue block (PBR [1]) | Muscle (% of vehicle), Non-radioactive Analogue block (PBR [1]) | Olfactory bulb uptake (% of vehicle), Non-radioactive Analogue block (PBR [1]) | Striata uptake (% of vehicle), Non-radioactive Analogue block (PBR [1]) | Brain (% parent) 10 min pi [2] | Brain (% parent) 30 min pi [2] | Brain (% parent) 60 min pi [2] | Plasma (% parent) 10 min pi [2] | Plasma (% parent) 30 min pi [2] | Plasma (% parent) 60 min pi [2] | Naïve brain stem % specific binding, Unlabelled ligand (PBR [3]) | further results |
| --- | --- | --- | --- | --- | --- | --- | --- | --- | --- | --- | --- | --- | --- | --- | --- | --- | --- | --- | --- | --- | --- |
| CCN(CC)C(=O)C1CCCc2c1c1c(OC)cccc1n2CC[18F] (racemic) [Racemate] | 3.0 | 0.36 % ID/g | 0.52 % ID/g | 247 % of vehicle | 13 % of vehicle | 90 % of vehicle | 37 % of vehicle | 114 % of vehicle | 289 % of vehicle | 11 % of vehicle | 140 % of vehicle | 59 % of vehicle | 124 % of vehicle | 100 ± 0 % parent | 97 ± 1 % parent | 91 ± 2 % parent | 81 ± 4 % parent | 49 ± 12 % parent | 28 ± 1 % parent | 21 % specific binding | pKi (Wistar rat heart PBR): 8.83; pKi (human PBR): 7.94; Olfactory bulb % specific binding, Unlabelled ligand (PBR [3]): 59 % specific binding; Naïve brain stem % specific binding, PK11195 (PBR [3]): 13 % specific binding; Olfactory bulb % specific binding, PK11195 (PBR [3]): 67 % specific binding; FNA brain stem % specific binding, Unlabelled ligand (PBR [3]): 72 % specific binding; FNA brain stem % specific binding, PK11195 (PBR [3]): 69 % specific binding |
| CCN(CC)C(=O)[C@@H]1CCCc2c1c1c(OC)cccc1n2CC[18F] [Alternative Enantiomer] | 2.9 | 0.23 % ID/g | 0.53 % ID/g |  |  |  |  |  |  |  |  |  |  |  |  |  |  |  |  |  | pKi (Wistar rat heart PBR; [6]): 8.41; pKi (human PBR; [7]): 7.85 |
| CCN(CC)C(=O)[C@H]1CCCc2c1c1c(OC)cccc1n2CC[18F] [PET Tracer of Invention] | 3.2 | 0.45 % ID/g | 0.53 % ID/g | 289 % of vehicle | 14 % of vehicle | 131 % of vehicle | 43 % of vehicle | 117 % of vehicle | 253 % of vehicle | 12 % of vehicle | 143 % of vehicle | 37 % of vehicle | 114 % of vehicle | 98 ± 2 % parent | 96 ± 2 % parent | 94 ± 2 % parent | 70 ± 18 % parent | 41 ± 16 % parent | 21 ± 5 % parent | 70 % specific binding | pKi (Wistar rat heart PBR; [6]): 9.06; racemisation after incubation in rat liver S9 fraction [4]: did not racemise; pKi (human PBR; [7]): 8.04; Olfactory bulb % specific binding, Unlabelled ligand (PBR [3]): 77 % specific binding; Naïve brain stem % specific binding, PK11195 (PBR [3]): 70 % specific binding; Olfactory bulb % specific binding, PK11195 (PBR [3]): 75 % specific binding; FNA brain stem % specific binding, Unlabelled ligand (PBR [3]): 86 % specific binding; FNA brain stem % specific binding, PK11195 (PBR [3]): 86 % specific binding; racemisation after incubation in human plasma [5]: No racemisation was observed |
